Assays:
[1] = Fraction unbound brain (fu,br), brain slice method; conditions: rat brain slices 300 µm, 1 µM, 5 h incubation
Method: Rats (male Sprague-Dawley) were decapitated under isoflurane anesthesia and the brains were removed carefully and immersed in ice-cold oxygenated physiological buffer at pH7.4. A 6 mm coronal section was cut with a razor and mounted with cyanoacrylate glue onto the tray of the microslicer (DTK-Zero 1 Microslicer, Dosak) after which six to eight 300 µm coronal slices from striatal areas were prepared. […] The compounds were dissolved at 1 µM in the buffer and the solution was incubated with the slice for 5 h.
After 5 h, the brain slices were weighed and homogenized in 9 volumes (w/v) of ECF buffer with a sonicator (SONICS VCX 500 and VCX 130). The slice homogenates in ECF buffer were stored at −20°C prior to analysis. The concentrations of the test compound in the brain slice homogenate and in the ECF buffer was determined by LC-MS/MS.
The unbound volume of distribution Vu,brain, or free fraction fu,brain was calculated according to the following equations: [drawing 1] [drawing 2] where Cslice, CECF and V0 are amount of drug in the slice, the drug concentration in the ECF (representing the drug concentration in the brain ECF, i.e. the free concentration), and the water adhesion of the brain slice. V0 has been estimated using ^14C -inulin in a separate experiment in which brain slices were incubated for 1, 2, and 4 min. V0 was obtained from brain slice uptake – inulin time profile (apparent zero-time intercept).

[2] = test system: in vitro BBB model (co-culture of bovine brain capillary endothelial cells and rat glial cells); assay: In vitro BBB co-culture model, Cu,br/Cu,pl ratio; conditions: for In vitro Cu,br/Cu,pl Mean 1 h: 2 µM in luminal compartment, abluminal/luminal concentration at 1 h; for In vitro Cu,br/Cu,pl Mean steady-state: steady-state ratio computed from 1 h data with the blue-norna steady-state calculator
Method: Figure 1 Schematic diagram of the experimental protocol. After 12 days of coculture in cell culture medium, both compartments of the in vitro BBB model consisting of a coculture of brain capillary endothlial cells and rat primary glial cells were filled with Hepes-buffered Ringer’s solution and the compounds dissolved at 2 µM were added in the luminal compartment (i.e donor). The presence of glial cells in the abluminal compartment was used to reproduce the non specific binding to brain tisssue within the brain prenchyma in vivo. After 1 hour, aliquots were taken from both compartments. In vitro Cu,br/Cu,pl at 1 h were calculated by dividing the concentration in the abluminal compartment (∼Cu,br) by the concentration in the luminal compartment (∼Cu,pl) at 1 h. The experimental data at 1 h were computed using the blue-norna steady-state calculator to generate the in vitro steady-state Cu,br/Cu,pl.
One hour after the addition of compounds dissolved at 2 µM in the luminal (i.e upper) compartment, aliquots were taken from both compartments previously filled with Hepes-buffered Ringer’s solution at the beginning of the experiment. […] The concentrations in both compartments of the in vitro assay after 1 h were computed using […] blue-norna.com to generate the in vitro steady-state Cu,br/Cu,pl.
The method of Dehouck et al. was used with minor modifications (Fig. 1). Bovine brain endothelial cells isolated from capillary fragments were cocultured with primary mixed glial cells from newborn Sprague–Dawley rats. The glial cells were isolated according to the method of Booher and Sensenbrenner and cultured for 3 weeks, plated on the bottom of cell culture clusters containing six wells each. The endothelial cells were seeded onto collagen-coated polycarbonate cell culture inserts (4.7 cm^2) (Corning Incorp. NY, USA), which were placed in the wells containing glial cells. The medium used for the coculture was Dulbecco’s modified Eagle’s medium supplemented with 10% calf serum, 10% horse serum, 2 mmol/L glutamine, 50 mg/L gentamicin and 1 µg/L basic fibroblast growth factor (Sigma). The medium was changed every second day. Experiments were usually initiated after 12 days of co-culture.
To monitor the integrity of the endothelial cell monolayer, the marker molecule [^14C] sucrose was added to the solution at a concentration of 0.05 µCi/ml. At the start of the transport experiments, buffered Ringer’s solution (pH = 7.4) was added to wells with glial cells. Inserts with brain endothelial cells were placed in these wells and drug solutions at 2 µM were added to the donor compartment. The plates were incubated for 1 h in a polymix shaker at 37°C with a low shaking velocity. Aliquots were taken from the donor compartment in the beginning and at the end of the experiments. The receiver compartments were sampled at the end of the experiments.
The amount of radiotracer in the abluminal compartment was measured in a liquid scintillation analyser (Packard Instrument Company, Meriden, USA). […] The concentrations of the test compound in all samples were analysed by MS/MS.
The mean free brain/plasma ratios were calculated from three individual experiments. One hour ratios were calculated by dividing the drug concentration in the receiver compartment by the free drug concentration in the donor compartment after 1 h. The experimental data at one hour (i.e concentration in both compartment at the beginning of the experiment and after 1 h) were computed using the blue-norna® steady-state calculator (www.blue-norna.com) to predict the in vivo steady-state Cu,br/Cu,pl ratios. For further details on this calculation method see file S1.
The in vivo steady-state Cu,br/Cu,pl were predicted from the in vitro experimental data collected after one hour according to the following equation: […]
Cdonor, t and Creceiver, t are the concentration of drug in the donor and receiver chambers at time t.

fubrain (slice) Mean [1]: 0.0100
In vitro Cu,br/Cu,pl Mean 1 h [2]: 0.10
In vitro Cu,br/Cu,pl Mean 1 h ([2]; listed as clozapine): 0.103
In vitro Cu,br/Cu,pl Mean steady-state [2]: 0.71
In vitro Cu,br/Cu,pl Mean steady-state ([2]; listed as clozapine): 0.713
Structure (SMILES): CN1CCN(C2=Nc3cc(Cl)ccc3Nc3ccccc32)CC1 [Clozapine]
